Among the data in BindingDB's records for doi:10.1021/jm0497242 (Leadscope, 2004) are IC50 values, retold here.

In this test the target is T1, Tyrosine-protein phosphatase non-receptor type 1 (Homo sapiens, UniProt P18031).
T1 sequence (P18031 whole entry): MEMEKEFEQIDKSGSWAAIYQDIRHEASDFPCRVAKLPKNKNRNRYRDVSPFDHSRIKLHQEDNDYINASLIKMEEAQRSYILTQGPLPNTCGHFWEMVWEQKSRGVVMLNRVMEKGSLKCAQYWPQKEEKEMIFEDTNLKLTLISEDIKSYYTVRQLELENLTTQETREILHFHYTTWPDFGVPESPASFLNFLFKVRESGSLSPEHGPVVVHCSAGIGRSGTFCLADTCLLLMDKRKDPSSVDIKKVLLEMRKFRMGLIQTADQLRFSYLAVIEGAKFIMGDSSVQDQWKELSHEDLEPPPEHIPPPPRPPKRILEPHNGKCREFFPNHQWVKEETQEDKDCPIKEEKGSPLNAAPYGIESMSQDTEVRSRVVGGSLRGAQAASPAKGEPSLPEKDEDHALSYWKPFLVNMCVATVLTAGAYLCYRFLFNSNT
Description: Concentration required for 50% inhibition of tyrosine phosphatase 1B.
As to `O=C(O)c1cc(S(=O)(=O)Oc2ccc(-c3ccc(-c4c(Cc5ccccc5)oc5ccccc45)cc3)cc2)ccc1O` [5-[4''-(2-Benzyl-benzofuran-3-yl)-biphenyl-4-yloxysulfonyl]-2-hydroxy-benzoic acid], half-maximal inhibition (IC50) was put at 0.0275 µM.
As for `O=C(O)CNc1cc(-c2ccc(-c3c(Cc4ccccc4)oc4ccccc34)cc2)ccc1OCCc1ccccc1` [[4'-(2-Benzyl-benzofuran-3-yl)-4-phenethyloxy-biphenyl-3-ylamino]-acetic acid], the midpoint of inhibition, the IC50, lay at 0.0831 µM.
In the case of `O=C(O)[C@@H](Cc1ccccc1)Oc1ccc(-c2ccc(-c3c(Cc4ccccc4)sc4ccccc34)cc2)cc1Br`, the IC50 (in general, the point on the concentration scale where inhibition reaches its midpoint) came out at 0.0588 µM.
